Experimental data published in PubChem BioAssay AID248 (DTP/NCI, 2004).
Inconclusive results and toxic doses are left out. Cut-off read from the data, not from the text of the source: active = T/C of 150% or more; inactive = T/C below 125%.

Test system: L1210 leukemia ip in BDF1 mice, survival T/C
Assay: NCI In Vivo Anticancer Drug Screen. Data for tumor model L1210 Leukemia (intraperitoneal) in B6D2F1 (BDF1) mice
Details: endpoint: mean survival time, higher = longer survival
Method in brief: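 Each compound was tested against a transplantable tumor grown in mice. The endpoint was survival, with treated animals benchmarked against vehicle controls as a simple ratio.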

[1] = dose: 100.0 mg/kg/injection, schedule: Q04DX003 (ip), vehicle: saline with Tween-80
[2] = dose: 200.0 mg/kg/injection, schedule: Q04DX003 (ip), vehicle: saline with Tween-80
[3] = dose: 400.0 mg/kg/injection, schedule: Q04DX003 (ip), vehicle: saline with Tween-80
[4] = dose: 200.0 mg/kg/injection, schedule: Q01DX009 (ip), vehicle: Klucel (hydroxypropylcellulose) (HPC)
[5] = dose: 25.0 mg/kg/injection, schedule: Q01DX009 (ip), vehicle: saline with Tween-80
[6] = dose: 50.0 mg/kg/injection, schedule: Q01DX009 (ip), vehicle: saline with Tween-80
[7] = dose: 100.0 mg/kg/injection, schedule: Q01DX009 (ip), vehicle: saline with Tween-80
[8] = dose: 200.0 mg/kg/injection, schedule: Q01DX009 (ip), vehicle: saline with Tween-80
[9] = dose: 400.0 mg/kg/injection, schedule: Q01DX009 (ip), vehicle: saline with Tween-80
[10] = dose: 50.0 mg/kg/injection, schedule: Q01DX001 (ip), vehicle: saline
[11] = dose: 100.0 mg/kg/injection, schedule: Q01DX001 (ip), vehicle: saline
[12] = dose: 200.0 mg/kg/injection, schedule: Q01DX001 (ip), vehicle: saline
[13] = dose: 400.0 mg/kg/injection, schedule: Q01DX001 (ip), vehicle: saline
[14] = dose: 100.0 mg/kg/injection, schedule: Q04DX003 (ip), vehicle: Klucel (hydroxypropylcellulose) (HPC)
[15] = dose: 200.0 mg/kg/injection, schedule: Q04DX003 (ip), vehicle: Klucel (hydroxypropylcellulose) (HPC)
[16] = dose: 400.0 mg/kg/injection, schedule: Q04DX003 (ip), vehicle: Klucel (hydroxypropylcellulose) (HPC)

Measured: T/C

CCCN(CCC)C(=O)C(=O)OCC
inactive: dose: 6.25 mg/kg/injection, schedule: Q04DX003 (ip), vehicle: saline with Tween-80 102 % of control | dose: 12.5 mg/kg/injection, schedule: Q04DX003 (ip), vehicle: saline with Tween-80 94 % of control | dose: 25.0 mg/kg/injection, schedule: Q04DX003 (ip), vehicle: saline with Tween-80 98 % of control

C1C2CC3C1C3/C2=N\N=C1/C2CC3C(C2)C13
inactive: dose: 75.0 mg/kg/injection, schedule: Q01DX001 (ip), vehicle: saline 101 % of control | dose: 150.0 mg/kg/injection, schedule: Q01DX001 (ip), vehicle: saline 89 % of control | dose: 300.0 mg/kg/injection, schedule: Q01DX001 (ip), vehicle: saline 98 % of control

CCSC(=O)C1OC(n2cnc3c(N)ncnc32)C2OC(C)(C)OC12 (stereo unspecified)
inactive: dose: 100.0 mg/kg/injection, schedule: Q01DX005 (ip), vehicle: saline 100 % of control | dose: 200.0 mg/kg/injection, schedule: Q01DX005 (ip), vehicle: saline 102 % of control

CC1(C)CC(=O)C=C(N)C1
inactive: [1] 97 % of control | [2] 92 % of control | [3] 95 % of control

Nc1nc(N)c(-c2ccc(Cl)c(Cl)c2)c(CCc2ccc(S(=O)(=O)F)cc2)n1
inactive: dose: 100.0 mg/kg/injection, schedule: Q01DX009 (ip), vehicle: Klucel (hydroxypropylcellulose) (HPC) 112 % of control | [4] 98 % of control

Cc1ccc(S(=O)(=O)Nc2c(N)nc(N)nc2-c2ccccc2)cc1
inactive: dose: 80.0 mg/kg/injection, schedule: Q01DX001 (ip), vehicle: Klucel (hydroxypropylcellulose) (HPC) 96 % of control | dose: 160.0 mg/kg/injection, schedule: Q01DX001 (ip), vehicle: Klucel (hydroxypropylcellulose) (HPC) 94 % of control | dose: 320.0 mg/kg/injection, schedule: Q01DX001 (ip), vehicle: Klucel (hydroxypropylcellulose) (HPC) 103 % of control

CC(=O)Nc1c(Cl)c(Cl)c(Cl)c2c1-c1ccc(Cl)cc1C2
inactive: dose: 100.0 mg/kg/injection, schedule: Q01DX001 (ip), vehicle: carboxymethylcellulose (CMC) 92 % of control | dose: 200.0 mg/kg/injection, schedule: Q01DX001 (ip), vehicle: carboxymethylcellulose (CMC) 101 % of control | dose: 400.0 mg/kg/injection, schedule: Q01DX001 (ip), vehicle: carboxymethylcellulose (CMC) 97 % of control

O=C(NCO)NCO
inactive: dose: 75.0 mg/kg/injection, schedule: Q01DX001 (ip), vehicle: Klucel (hydroxypropylcellulose) (HPC) 95 % of control | dose: 150.0 mg/kg/injection, schedule: Q01DX001 (ip), vehicle: Klucel (hydroxypropylcellulose) (HPC) 93 % of control | dose: 300.0 mg/kg/injection, schedule: Q01DX001 (ip), vehicle: Klucel (hydroxypropylcellulose) (HPC) 97 % of control

CC1CCC2(OC1)OC1C(O)C3C4CCC5CC(OC6OC(CO)C(OC7OC(CO)C(O)C(OC8OCC(O)C(O)C8O)C7OC7OC(CO)C(O)C(OC8OC(CO)C(O)C(O)C8O)C7O)C(O)C6O)C(O)CC5(C)C4CCC3(C)C1C2C (stereo unspecified)
inactive: dose: 25.0 mg/kg/injection, schedule: Q01DX001 (ip), vehicle: saline with Tween-80 93 % of control

COC(=O)/C(=C1/OC(=O)C(c2ccccc2)=C1O)c1ccccc1
inactive: [5] 93 % of control | [6] 95 % of control | [7] 93 % of control | [1] 100 % of control

S=c1nc[nH]c2c1ncn2C1CCCCC1
inactive: dose: 47.0 mg/kg/injection, schedule: Q01DX Z (ip), vehicle: carboxymethylcellulose (CMC) 98 % of control | dose: 94.0 mg/kg/injection, schedule: Q01DX Z (ip), vehicle: carboxymethylcellulose (CMC) 98 % of control | dose: 94.0 mg/kg/injection, schedule: Q01DX Z (oral), vehicle: carboxymethylcellulose (CMC) 108 % of control | dose: 188.0 mg/kg/injection, schedule: Q01DX Z (ip), vehicle: carboxymethylcellulose (CMC) 106 % of control | dose: 188.0 mg/kg/injection, schedule: Q01DX Z (oral), vehicle: carboxymethylcellulose (CMC) 98 % of control | dose: 376.0 mg/kg/injection, schedule: Q01DX Z (ip), vehicle: carboxymethylcellulose (CMC) 102 % of control | dose: 376.0 mg/kg/injection, schedule: Q01DX Z (oral), vehicle: carboxymethylcellulose (CMC) 110 % of control | dose: 752.0 mg/kg/injection, schedule: Q01DX Z (oral), vehicle: carboxymethylcellulose (CMC) 106 % of control

CC(=O)OC1C=CCC2C(=O)c3c(c(O)c4ccccc4c3O)C(=O)C12 (stereo unspecified)
inactive: [7] 95 % of control | [1] 95 % of control | [8] 105 % of control | [2] 95 % of control | [9] 100 % of control | [3] 90 % of control

O=C(Cc1cc2c(cc1[N+](=O)[O-])OCO2)c1c[nH]c2ccc(Br)cc12
inactive: [10] 98 % of control | [11] 92 % of control | [12] 98 % of control | [13] 95 % of control

O=C(NCCCl)NC(C1CC1)C1CC1
inactive: [7] 94 % of control | [8] 94 % of control

O=C(O)c1ccccc1C(=O)NCc1ccc(Cl)cc1Cl
inactive: dose: 100.0 mg/kg/injection, schedule: Q04DX002 (ip), vehicle: Klucel (hydroxypropylcellulose) (HPC) 88 % of control | dose: 200.0 mg/kg/injection, schedule: Q04DX002 (ip), vehicle: Klucel (hydroxypropylcellulose) (HPC) 100 % of control | dose: 400.0 mg/kg/injection, schedule: Q04DX002 (ip), vehicle: Klucel (hydroxypropylcellulose) (HPC) 98 % of control

C/C(O)=C/c1cc(N2CCCCC2)nc(=S)[nH]1
inactive: [14] 102 % of control | [15] 100 % of control | [16] 100 % of control

O=C(O)COc1cc(OCC(=O)O)c([N+](=O)[O-])cc1[N+](=O)[O-]
inactive: [14] 102 % of control | [15] 102 % of control | [16] 91 % of control

COc1c(C)c(C)c(OC)c(Br)c1C
inactive: dose: 100.0 mg/kg/injection, schedule: Q01DX001 (ip), vehicle: saline with Tween-80 98 % of control | [7] 95 % of control | dose: 200.0 mg/kg/injection, schedule: Q01DX001 (ip), vehicle: saline with Tween-80 102 % of control | [8] 98 % of control | dose: 400.0 mg/kg/injection, schedule: Q01DX001 (ip), vehicle: saline with Tween-80 98 % of control | [9] 106 % of control

C=C(C)COB(OCC(=C)C)OCC(=C)C
inactive: [5] 100 % of control | [6] 105 % of control | [7] 94 % of control

CC1=CC(C)(C)NC(=S)N1c1ccccc1
inactive: [14] 103 % of control | [4] 86 % of control | [15] 103 % of control | dose: 400.0 mg/kg/injection, schedule: Q01DX009 (ip), vehicle: Klucel (hydroxypropylcellulose) (HPC) 87 % of control | [16] 101 % of control

Cc1ccc(NC(=O)Nc2ccc(C)c(NC(=O)Nc3ccc(C)c(Cl)c3)c2)cc1Cl
inactive: [6] 90 % of control | [7] 88 % of control | [1] 88 % of control | [8] 94 % of control

CC(=O)OCC(COC(C)=O)(OC(COC(C)=O)(COC(C)=O)c1ccc(C)c(C)c1)c1ccc(C)c(C)c1
inactive: [10] 97 % of control | [11] 100 % of control | [12] 97 % of control | [13] 100 % of control

CC1CCCC1Sc1ccccc1 (stereo unspecified)
inactive: [11] 91 % of control | dose: 100.0 mg/kg/injection, schedule: Q01DX009 (ip), vehicle: acetone 99 % of control | [12] 91 % of control | dose: 200.0 mg/kg/injection, schedule: Q01DX009 (ip), vehicle: acetone 106 % of control | [13] 93 % of control | dose: 400.0 mg/kg/injection, schedule: Q01DX009 (ip), vehicle: acetone 92 % of control

C=CCOC(=O)Nc1cccc(O)c1
inactive: dose: 100.0 mg/kg/injection, schedule: Q04DX002 (ip), vehicle: saline with Tween-80 106 % of control | dose: 200.0 mg/kg/injection, schedule: Q04DX002 (ip), vehicle: saline with Tween-80 110 % of control | dose: 400.0 mg/kg/injection, schedule: Q04DX002 (ip), vehicle: saline with Tween-80 103 % of control

COc1ccc(/C=N/O)c(C)c1OC
inactive: [11] 98 % of control | [12] 96 % of control | [13] 96 % of control

O=C(COc1ccc(Cl)cc1C(=O)O)Nc1cccc(NC(=O)Nc2cc(S(=O)(=O)F)ccc2Cl)c1
inactive: dose: 100.0 mg/kg/injection, schedule: Q01DX001 (ip), vehicle: Klucel (hydroxypropylcellulose) (HPC) 94 % of control | dose: 200.0 mg/kg/injection, schedule: Q01DX001 (ip), vehicle: Klucel (hydroxypropylcellulose) (HPC) 88 % of control | dose: 400.0 mg/kg/injection, schedule: Q01DX001 (ip), vehicle: Klucel (hydroxypropylcellulose) (HPC) 91 % of control

O=c1[nH]cccc1[N+](=O)[O-]
inactive: [7] 95 % of control | [8] 90 % of control | [9] 95 % of control
